According to paper PMC10650415, “Synthesis of Tetracyclic Spirooxindolepyrrolidine-Engrafted Hydantoin Scaffolds: Crystallographic Analysis, Molecular Docking Studies and Evaluation of Their Antimicrobial, Anti-Inflammatory and Analgesic Activities” (Molecules, 2023):
In brackets after ≈: the same amount, converted by molar mass.

What was measured:
M. luteus NCIMB 8166 = test: MBC by the agar method; details: for MBC: Micrococcus luteus, NCIMB8166; for MBC/MIC ratio: M. luteus, ≤ 4 bactericidal, >4 bacteriostatic
Method: (§2) To further determine the killing efficiency of the synthesized spiropyrrolidines against selected strains, the minimum bactericidal concentration (MBC) and the minimum fungicidal concentration (MFC) were assessed by the agar method [54].

[1] = system: Escherichia coli ATCC 25922; test: MIC, in vitro micro diffusion method; format: cell-based; details: ATCC25922, E. coli ATCC 25922
[2] = biological target: T1, Lipoxygenase-5 (LOX-5) enzyme (Homo sapiens, UniProt P09917); test: In vitro lipoxygenase (LOX-5) inhibitory assay; format: biochemical; details: mean ± SEM, n = 5; read-out: IC50 (LOX-5 inhibition) (converted)
T1 construct: purchased sigma 437996-500U
T1 sequence (P09917 1-674): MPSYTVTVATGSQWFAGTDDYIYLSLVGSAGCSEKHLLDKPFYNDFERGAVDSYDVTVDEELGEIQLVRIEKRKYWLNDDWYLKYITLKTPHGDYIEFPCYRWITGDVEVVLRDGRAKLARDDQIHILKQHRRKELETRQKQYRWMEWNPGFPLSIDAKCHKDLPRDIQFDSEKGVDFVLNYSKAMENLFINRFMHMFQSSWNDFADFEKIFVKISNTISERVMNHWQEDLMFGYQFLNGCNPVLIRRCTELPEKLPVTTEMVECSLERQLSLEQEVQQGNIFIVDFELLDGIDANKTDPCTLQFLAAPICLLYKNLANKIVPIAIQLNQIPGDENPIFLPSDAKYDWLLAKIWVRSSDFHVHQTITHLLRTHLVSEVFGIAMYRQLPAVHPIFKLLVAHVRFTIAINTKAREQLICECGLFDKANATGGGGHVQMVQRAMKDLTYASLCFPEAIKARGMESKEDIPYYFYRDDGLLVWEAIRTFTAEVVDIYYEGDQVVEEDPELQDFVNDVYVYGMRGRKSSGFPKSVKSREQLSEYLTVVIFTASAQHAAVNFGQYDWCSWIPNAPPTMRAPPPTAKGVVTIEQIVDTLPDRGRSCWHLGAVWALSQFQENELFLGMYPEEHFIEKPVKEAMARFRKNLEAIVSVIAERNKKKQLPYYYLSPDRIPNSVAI
Method: Lipoxygenases are a family of monomeric proteins that catalyze oxidation of polyunsaturated fatty acids (PUFA) (linoleic, linolenic and arachidonic acid) to produce hydroperoxides. Fractions’ anti-LOX activity was also measured as inhibition of linoleic acid’s peroxidation to hydroperoxylinoleic acid.
To evaluate the prospects of the newly synthesized spirooxindoles as promising drug candidates, we first studied their inhibitory potency against the Lipoxygenase-5 (LOX-5) enzyme.

S. aureus ATCC 25923 = test: MBC by the agar method; details: for MBC: Staphylococcus aureus, ATCC25923
Method: as §2

C. albicans ATCC 90028 = test: MFC by the agar method; details: for MFC/MIC ratio: C. Albicans, ≤ 4 fungicidal, >4 fungistatic; for MFC: Candida albicans, ATCC90028
Method: as §2

[3] = system: Micrococcus luteus NCIMB 8166; test: MIC, in vitro micro diffusion method; format: cell-based; details: NCIMB8166, M. luteus NCIMB 8166
Source text: (§1) In this part, the spiropyrrolidines 4a–m were selected to be screening for their antimicrobial activities, using in vitro micro diffusion method, against multiple bacterial strains (Staphylocoocus aureus ATCC 25923, Escherichia coli ATCC 25922, Pseudomonas aeruginosa ATCC 27950, Micrococcus luteus NCIMB 8166), and two pathogenic reference yeasts namely Candida albicans ATCC 90028 and Candida kreusei ATCC 6258.

E. coli ATCC 25922 = test: MBC by the agar method
Method: as §2

P. aeruginosa ATCC 27950 = test: MBC by the agar method; details: Pseudomonas aeruginosa, ATCC27950
Method: as §2

C. kreusei ATCC 6258 = test: MFC by the agar method; details: for MFC/MIC ratio: C. Krusei, ≤ 4 fungicidal, >4 fungistatic; for MFC: Pichia kudriavzevii, ATCC6258
Method: as §2

[4] = system: Candida albicans ATCC 90028; test: MIC, in vitro micro diffusion method; format: cell-based; details: ATCC90028, C. albicans ATCC 90028
Source text: as §1

[5] = system: Staphylocoocus aureus ATCC 25923; test: MIC, in vitro micro diffusion method; format: cell-based; details: Staphylococcus aureus, ATCC25923; S. aureus ATCC 25923
Source text: as §1

[6] = system: Candida kreusei ATCC 6258; test: MIC, in vitro micro diffusion method; format: cell-based; details: C. krusei ATCC 6258
Source text: as §1

[7] = system: acetic acid-induced writhing; test: Acetic acid-induced writhing test (analgesic); details: 100 mg/kg
Method: Any writhing was considered a positive response. The efficacy and potency of analgesic activity of the test compounds is inferred from the reduction in the frequency of writhings [53].
Analgesic activity in rats was determined by the protocol described by Tiss et al. [82].

[8] = Acute toxicity (liver and kidney indices); format: in vivo; details: rats
[9] = system: λ-carrageenan-induced paw edema; test: Carrageenan-induced paw edema test; format: in vivo; details: rats
Source text: Diclofenac sodium was used as a reference drug.

[10] = set-up: method as in doi:10.1002/slct.201901228; details: read-out: IC50 (anti-inflammatory efficacy); cited from earlier work
[11] = Escherichia coli, ATCC25922, E. coli ATCC 25922

SMILES	MBC (M. luteus NCIMB 8166)	melting point	IC50 [2]	MBC (S. aureus ATCC 25923)	MFC/MIC ratio (C. albicans ATCC 90028)	MFC (C. albicans ATCC 90028)	MIC [3]	MBC (E. coli ATCC 25922; E. coli ATCC 25922)	MBC (E. coli ATCC 25922; [11])	MBC (P. aeruginosa ATCC 27950)	MFC/MIC ratio (C. kreusei ATCC 6258)	MFC (C. kreusei ATCC 6258)	MIC [5]	further results
O=C1NC(=O)[C@]2(N1)[C@@H](c1ccccc1O)[C@H](c1ccccc1)N[C@@]21C(=O)Nc2ccc(Cl)cc21 (stereo in doubt) [4m]	188 µg/mL (≈ 395 µM)	223 °C	2.99 mM	93.8 µg/mL (≈ 197 µM)	≤ 4	93.8 µg/mL (≈ 197 µM)	93.8 µg/mL (≈ 197 µM)	375 µg/mL (≈ 790 µM)	188 to 374 µg/mL (≈ 395 to 788 µM)	188 µg/mL (≈ 395 µM)	≤ 4	93.8 µg/mL (≈ 197 µM)	–	MIC [1]: 188 µg/mL (≈ 395 µM)
O=C1NC(=O)[C@]2(N1)[C@@H](c1ccc(Cl)cc1)[C@H](c1ccccc1)N[C@@]21C(=O)Nc2ccccc21 (racemic) [4e]	> 1500 µg/mL	235 °C	3.86 mM	93.8 µg/mL (≈ 204 µM)	≤ 4	23.4 µg/mL (≈ 51.1 µM)	–	–	750 µg/mL (≈ 1630 µM)	188 µg/mL (≈ 409 µM)	≤ 4	46.9 µg/mL (≈ 102 µM)	46.9 µg/mL (≈ 102 µM)	MIC [4]: 23.4 µg/mL (≈ 51.1 µM); MIC [6]: 46.9 µg/mL (≈ 102 µM)
O=C1NC(=O)[C@]2(N1)[C@@H](c1ccc(Br)cc1)[C@H](c1ccccc1)N[C@@]21C(=O)N(Cc2ccccc2)c2ccccc21 (racemic) [4g]	> 1500 µg/mL	223 °C	8.36 mM	46.9 µg/mL (≈ 79 µM)	≤ 4	93.8 µg/mL (≈ 158 µM)	93.8 µg/mL (≈ 158 µM)	375 µg/mL (≈ 632 µM)	188 to 374 µg/mL (≈ 316 to 630 µM)	188 µg/mL (≈ 316 µM)	≤ 4	93.8 µg/mL (≈ 158 µM)	23.3 µg/mL (≈ 39.3 µM)	MBC/MIC ratio (M. luteus NCIMB 8166): 8
COc1ccc([C@H]2[C@H](c3ccccc3)N[C@@]3(C(=O)Nc4ccc(Cl)cc43)[C@@]23NC(=O)NC3=O)cc1 (racemic) [4c]	750 µg/mL (≈ 1530 µM)	211 °C	4.42 mM	188 µg/mL (≈ 383 µM)	–	46.9 µg/mL (≈ 95.9 µM)	93.8 µg/mL (≈ 192 µM)	–	188 µg/mL (≈ 383 µM)	93.8 µg/mL (≈ 192 µM)	–	> 1500 µg/mL	–	MBC/MIC ratio (M. luteus NCIMB 8166): 8; MIC [1]: 188 µg/mL (≈ 383 µM)
O=C1NC(=O)[C@]2(N1)[C@@H](c1ccccc1O)[C@H](c1ccccc1)N[C@@]21C(=O)Nc2ccccc21 (racemic) [4l]	750 µg/mL (≈ 1700 µM)	–	2.47 mM	93.8 µg/mL (≈ 213 µM)	≤ 4	188 µg/mL (≈ 426 µM)	–	–	188 µg/mL (≈ 426 µM)	93.8 µg/mL (≈ 213 µM)	≤ 4	93.8 µg/mL (≈ 213 µM)	46.9 µg/mL (≈ 106 µM)	% Inhibition (writhing) [7]: 53%; Number of Writhing ([7]; mean ± SE): 29 ± 6; ALT ([8]; dose of 16.25 mg/kg): 22 ± 1.7 U/L; AST ([8]; dose of 16.25 mg/kg): 101 ± 11 U/L; Albumin ([8]; dose of 16.25 mg/kg): 8.5 ± 1.1 g/L; Creat ([8]; dose of 16.25 mg/kg): 3.41 ± 0.8 µmol/L; Urea ([8]; dose of 16.25 mg/kg): 2.97 ± 0.5 mmol/L; Acute toxicity (result in words) ([8]; up to a dose of 16.25 mg/kg): did not cause any toxicity; Increase in Paw Volume, 0 h ([9]; 10 mg/kg orally 1 h before carrageenan, 0 h): 0.57 ± 0.19; Increase in Paw Volume, 1 h ([9]; 10 mg/kg orally 1 h before carrageenan, 1 h): 0.93 ± 0.13; Increase in Paw Volume, 2 h ([9]; 10 mg/kg orally 1 h before carrageenan, 2 h): 1.26 ± 0.31; Increase in Paw Volume, 4 h ([9]; 10 mg/kg orally 1 h before carrageenan, 4 h): 1.73 ± 0.33; % Inhibition of Edema, 1 h ([9]; 10 mg/kg orally, 1 h): 29%; % Inhibition of Edema, 2 h ([9]; 10 mg/kg orally, 2 h): 18%; % Inhibition of Edema, 4 h ([9]; 10 mg/kg orally, 4 h): 32%
Cc1ccc([C@H]2[C@H](c3ccccc3)N[C@@]3(C(=O)Nc4ccc(Br)cc43)[C@@]23NC(=O)NC3=O)cc1 (racemic) [4b]	750 µg/mL (≈ 1450 µM)	236 °C	5.66 mM	750 µg/mL (≈ 1450 µM)	≤ 4	188 µg/mL (≈ 362 µM)	–	375 µg/mL (≈ 725 µM)	188 to 374 µg/mL (≈ 362 to 723 µM)	93.8 µg/mL (≈ 181 µM)	≤ 4	93.8 µg/mL (≈ 181 µM)	46.9 µg/mL (≈ 90.6 µM)	MBC/MIC ratio (S. aureus ATCC 25923; S. aureus, ≤ 4 bactericidal, >4 bacteriostatic): 16
CC(C)Cc1ccc(C(C)C(=O)O)cc1 (stereo not shown) [ibuprofen]	–	–	–	–	–	–	–	–	–	–	–	–	–	IC50 [10]: 0.0112 ± 0.0019 mM
C[C@@H]1[C@H](O)[C@@H](C)/C=C/C=C/C=C/C=C/C=C/C=C/C=C/[C@H](O[C@@H]2O[C@H](C)[C@@H](O)[C@H](N)[C@@H]2O)C[C@@H]2O[C@](O)(C[C@@H](O)C[C@@H](O)[C@H](O)CC[C@@H](O)C[C@@H](O)CC(=O)O[C@H]1C)C[C@H](O)[C@H]2C(=O)O [Amphotericin B, reference compound]	–	–	–	–	–	500 µg/mL (≈ 541 µM)	–	–	–	–	–	62.5 µg/mL (≈ 67.6 µM)	–	MIC [6]: 62.5 µg/mL (≈ 67.6 µM)
O=C1/C(=C/c2cccc(F)c2)CCC[C@@]12[C@H](c1cccc(F)c1)[C@@H]1CSCN1[C@]21C(=O)Nc2ccccc21 [IVc]	–	–	–	–	–	–	–	–	–	–	–	–	–	IC50 [10]: 0.0024 ± 0.0013 mM
